The results in this text go back to patent US12286437B2, “Cardiac sarcomere inhibitors” (Cytokinetics, Inc., priority 2021, dated 2025).

One data set deals with T1, CYP2C19 (Homo sapiens, UniProt P33261).
T1 construct: Pooled human microsomes and selective CYP probe substrates were used; from tissue; host or cells: pooled human liver microsomes
In words: Time-dependent inhibition of CYP2C19 in human liver microsomes. It is filed as in vitro ADME. As to conditions: for (% Activity NADPH T0)/(% Activity NADPH T30): fold change; for activity at 30 min, 25 µM / activity at 0 min, 25 µM / activity at 30 min, 50 µM / activity at 0 min, 50 µM: pooled human liver microsomes, human liver microsomes; for activity at 30 min, 25 µM / activity at 30 min, 50 µM: after 30 minutes incubation, read-out: % Activity NADPH T30; for activity at 0 min, 25 µM / activity at 0 min, 50 µM: time zero, read-out: % Activity NADPH T0. How it is done:
(§1) An assessment of the time-dependent Inhibitory Potential of the test compounds against Principal Human Cytochrome P450 Isozymes using Human Liver Microsomes was also carried out using standard methods (Grimm et al, Drug Metab. Dispos., July; 37(7):1355-70. doi: 10.1124/dmd.109.026716, 2009). Pooled human microsomes and selective CYP probe substrates were used for in vitro assessment of test compounds at 25 and 50 μM as time-dependent inhibitors of […] human hepatic cytochrome P450 isozymes (CYP1A2, 2B6, 2C9, 2C19, 2D6, and 3A4). LC-MS/MS was used to quantify metabolite formation. The inhibition of each P450 enzyme in human liver microsomes was measured as the percentage decrease in the activity of marker metabolite formation as measured by LC-MS/MS compared to non-inhibited controls (=100% activity) at time zero and after 30 minutes incubation. The occurrence of any time dependent inhibition was then expressed as the fold change in enzyme activity at time zero relative to the activity after 30 minutes incubation.
On the technique in general: Microsomes from liver hold many membrane-bound enzymes, among them those of drug oxidation.

The next data set concerns the target T2, CYP1A2 (Homo sapiens, UniProt P05177).
T2 construct: Pooled human microsomes and selective CYP probe substrates were used; from tissue; host or cells: pooled human liver microsomes
T2 sequence (P05177 1-516): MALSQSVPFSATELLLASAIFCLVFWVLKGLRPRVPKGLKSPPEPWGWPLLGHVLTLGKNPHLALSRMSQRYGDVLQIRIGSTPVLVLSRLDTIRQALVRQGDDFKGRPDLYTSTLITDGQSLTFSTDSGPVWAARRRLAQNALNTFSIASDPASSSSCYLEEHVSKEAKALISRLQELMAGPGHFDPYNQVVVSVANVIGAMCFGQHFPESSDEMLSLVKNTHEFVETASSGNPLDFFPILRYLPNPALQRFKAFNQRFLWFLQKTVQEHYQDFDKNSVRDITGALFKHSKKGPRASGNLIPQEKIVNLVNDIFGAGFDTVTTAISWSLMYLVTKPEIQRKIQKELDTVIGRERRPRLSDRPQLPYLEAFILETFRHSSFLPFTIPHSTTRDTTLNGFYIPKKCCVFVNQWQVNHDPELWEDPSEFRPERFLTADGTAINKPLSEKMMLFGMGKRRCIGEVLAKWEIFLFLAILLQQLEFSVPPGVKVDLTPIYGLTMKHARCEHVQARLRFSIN
Briefly: Time-dependent inhibition of CYP1A2 in human liver microsomes. It is filed as in vitro ADME. To be noted: for (% Activity NADPH T0)/(% Activity NADPH T30): fold change; for activity at 30 min, 25 µM / activity at 0 min, 25 µM / activity at 30 min, 50 µM / activity at 0 min, 50 µM: pooled human liver microsomes, human liver microsomes; for activity at 30 min, 25 µM / activity at 30 min, 50 µM: after 30 minutes incubation, read-out: % Activity NADPH T30; for activity at 0 min, 25 µM / activity at 0 min, 50 µM: time zero, read-out: % Activity NADPH T0. How it is done:
as §1

For a further data set, the target named is T3, CYP2C8 (Homo sapiens, UniProt P10632).
T3 construct: Pooled human microsomes and selective CYP probe substrates were used; from tissue; host or cells: pooled human liver microsomes
T3 sequence (P10632 1-490): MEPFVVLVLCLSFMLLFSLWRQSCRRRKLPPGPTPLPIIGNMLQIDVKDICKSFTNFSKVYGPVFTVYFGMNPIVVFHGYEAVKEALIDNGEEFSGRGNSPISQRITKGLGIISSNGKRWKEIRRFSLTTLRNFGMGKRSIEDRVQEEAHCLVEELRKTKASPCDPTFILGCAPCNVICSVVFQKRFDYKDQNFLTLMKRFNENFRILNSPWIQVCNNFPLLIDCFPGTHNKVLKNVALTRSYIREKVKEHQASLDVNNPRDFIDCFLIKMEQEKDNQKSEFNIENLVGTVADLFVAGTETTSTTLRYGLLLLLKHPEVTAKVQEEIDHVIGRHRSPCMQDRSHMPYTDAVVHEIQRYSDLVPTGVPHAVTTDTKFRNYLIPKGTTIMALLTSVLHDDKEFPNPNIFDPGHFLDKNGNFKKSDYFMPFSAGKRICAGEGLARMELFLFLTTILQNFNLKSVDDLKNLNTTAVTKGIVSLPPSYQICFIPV
In words: Time-dependent inhibition of CYP2C8 in human liver microsomes. It is filed as in vitro ADME. As to conditions: for (% Activity NADPH T0)/(% Activity NADPH T30): fold change; for activity at 30 min, 25 µM / activity at 0 min, 25 µM / activity at 30 min, 50 µM / activity at 0 min, 50 µM: pooled human liver microsomes, human liver microsomes; for activity at 30 min, 25 µM / activity at 30 min, 50 µM: after 30 minutes incubation, read-out: % Activity NADPH T30; for activity at 0 min, 25 µM / activity at 0 min, 50 µM: time zero, read-out: % Activity NADPH T0. As for the experimental part:
as §1

The nature of data set [1]: Rat single dose pharmacokinetics. As to conditions: male, Sprague Dawley, plasma, IV; for Vd: read-out: Vss. The class given is in vivo, Sprague Dawley rats. How it is done:
Male Sprague Dawley rats were obtained from Zhejiang Vital River Laboratory Animal Technology Co., Ltd. The animals in IV group had free access to water and food. The animals in PO group were fasted overnight before dosing and provided with food 2 hours post dosing. The IV dose solution was prepared in 10% DMA/50% PG/40% HPβCD solution (40% w/v aqueous HPβCD) at a concentration of 1 mg/mL. The oral dosing suspension was prepared by suspending Test Article in 0.5% HPMC/0.1% Tween 80 in water at a concentration 0.2 mg/mL. Concentrations of IV and PO doses were measured at the end of the study. Pharmacokinetic parameters were calculated using the nominal dose values if the measured values were within 20% of the nominal values. Three rats were dosed IV via a bolus injection via caudal vein. Three rats per dose group were dosed by oral gavage. Blood samples were collected from the jugular vein cannula at predose, 5 (IV only), 15, 30 minutes, and 1, 2, 4, 6, and 24 hours post-dose. Blood volumes were replaced with an equal amount of sterile 0.9% saline. Blood samples were centrifuged and the collected plasma was stored at −80° C. for subsequent analysis. Plasma samples were analyzed for Test Article concentrations using a LC/MS/MS method. Briefly, a 50 μL aliquot of each plasma sample was mixed with 100 μL of acetonitrile that contained an internal standard. The mixture was vortexed and centrifuged. Ten (10) […] of the resulting solution was injected onto a reverse-phase C18 column and the resultant peaks detected on a LC/MS/MS equipped with a turbo ionspray ionization source. Sample concentrations below the limit of quantification (BLQ) were treated as zero for pharmacokinetic calculations. Pharmacokinetic parameters were estimated from individual animals using noncompartmental analysis of the concentration-time data (Phoenix WinNonLin software, version 64; Pharsight, Mountain View, CA). The elimination rate constant (k) was calculated as the absolute value of the slope of the linear regression of logarithm (log) of the concentration versus time for the last three data points of the concentration-time profiles. Apparent elimination half-life (t1/2) values were calculated as ln(2)/k. Area under the concentration-time curve (AUC) values were estimated using linear trapezoidal method. AUCt values were calculated from the dosing time to the last measurable concentration. AUC∞ values were calculated as the sum of the corresponding AUCt and the ratio of the last detectable concentration divided by k (AUCt-∞). Plasma clearance (CL) was calculated from Dose/AUC∞. Mean resident time (MRT) was estimated by moment analysis. Volume of distribution at steady state (Vss) was calculated from MRT∞×CL. Maximum concentration (Cmax) and time to reach Cmax (tmax) were recorded as observed. Bioavailability was calculated from the ratio of dose normalized AUC∞,po of individual rats/mean dAUC∞,iv×100% where dAUC was the dose normalized AUC value. Compounds tested were prepared in accordance with the synthetic procedures described herein.

T1 sequence (P33261 whole entry): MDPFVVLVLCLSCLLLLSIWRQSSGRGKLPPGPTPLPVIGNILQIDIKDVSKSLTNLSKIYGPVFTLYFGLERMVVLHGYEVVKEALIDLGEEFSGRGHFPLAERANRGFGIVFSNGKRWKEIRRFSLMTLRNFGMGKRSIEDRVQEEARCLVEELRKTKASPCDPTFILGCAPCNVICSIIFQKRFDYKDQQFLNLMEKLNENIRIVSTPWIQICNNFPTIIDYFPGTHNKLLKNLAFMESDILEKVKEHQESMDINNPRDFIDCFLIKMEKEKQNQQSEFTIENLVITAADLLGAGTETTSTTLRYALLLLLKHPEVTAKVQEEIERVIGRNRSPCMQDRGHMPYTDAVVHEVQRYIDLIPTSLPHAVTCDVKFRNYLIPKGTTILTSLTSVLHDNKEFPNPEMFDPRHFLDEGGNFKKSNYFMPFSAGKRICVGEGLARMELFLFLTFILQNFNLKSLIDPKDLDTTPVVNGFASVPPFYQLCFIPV

For the molecule `Cc1cc(CN2C(=O)CN([C@H]3CC[C@H](C)CC3)C(=O)C23CN(C(N)=O)C3)ccc1F` [Compound 6, 5-(4-fluoro-3-methylbenzyl)-8-((1r,4r)-4-methylcyclohexyl)-6,9-dioxo-2,5,8-triazaspiro[3.5]nonane-2-carboxamide], on CYP2C19 (CYP2C19, 25 μM), the “(% Activity NADPH T0)/(% Activity NADPH T30)” value stood at 1.2; the activity at 30 min, 25 µM came out at 89%; the activity at 0 min, 25 µM amounted to 105%. Also, on CYP2C19 (CYP2C19, 50 μM), the “(% Activity NADPH T0)/(% Activity NADPH T30)” value was determined as 1.1; the activity at 30 min, 50 µM was 92%; the activity at 0 min, 50 µM stood at 100%. At CYP1A2 (CYP1A2, 25 μM), the “(% Activity NADPH T0)/(% Activity NADPH T30)” value was 1.1; the activity at 30 min, 25 µM turned out to be 85%; the activity at 0 min, 25 µM turned out to be 97%. In addition, at CYP1A2 (CYP1A2, 50 μM), the “(% Activity NADPH T0)/(% Activity NADPH T30)” value worked out at 1.0; the activity at 30 min, 50 µM turned out to be 99%; the activity at 0 min, 50 µM stood at 95%. Further, at CYP2C8 (CYP2C8, 25 μM), the “(% Activity NADPH T0)/(% Activity NADPH T30)” value amounted to 0.9; the activity at 30 min, 25 µM is 88%; the activity at 0 min, 25 µM came out at 79%. Also, on CYP2C8 (CYP2C8, 50 μM), the “(% Activity NADPH T0)/(% Activity NADPH T30)” value is on record as 1.1; the activity at 30 min, 50 µM is 80%; the activity at 0 min, 50 µM was 86%. For the same molecule, in data set [1], the clearance (commonly the volume of plasma or blood freed of the substance per unit of time) is 76.6 mL/min/kg; the half-life – broadly, the time in which the quantity being followed falls by half – was 120 min; the Vd was 10.1 L/kg.
Take `CC(C)N1CC(=O)N(Cc2ccc(Cl)c(F)c2)C2(CN(c3cccnn3)C2)C1=O` [Compound 8, 5-(4-chloro-3-fluorobenzyl)-8-isopropyl-2-(pyridazin-3-yl)-2,5,8-triazaspiro[3.5]nonane-6,9-dione]: at CYP2C19 (CYP2C19, 25 μM), the “(% Activity NADPH T0)/(% Activity NADPH T30)” value amounted to 0.9; the activity at 30 min, 25 µM was found to be 99%; the activity at 0 min, 25 µM was determined as 94%. On CYP2C19 (CYP2C19, 50 μM), the “(% Activity NADPH T0)/(% Activity NADPH T30)” value was determined as 1.0; the activity at 30 min, 50 µM turned out to be 92%; the activity at 0 min, 50 µM is 93%. In addition, on CYP1A2 (CYP1A2, 25 μM), the “(% Activity NADPH T0)/(% Activity NADPH T30)” value worked out at 0.9; the activity at 30 min, 25 µM was 96%; the activity at 0 min, 25 µM came out at 82%. Moreover, at CYP1A2 (CYP1A2, 50 μM), the “(% Activity NADPH T0)/(% Activity NADPH T30)” value turned out to be 0.9; the activity at 30 min, 50 µM worked out at 101%; the activity at 0 min, 50 µM was found to be 86%. In addition, at CYP2C8 (CYP2C8, 25 μM), the “(% Activity NADPH T0)/(% Activity NADPH T30)” value is recorded as 1.0; the activity at 30 min, 25 µM was 117%; the activity at 0 min, 25 µM was 117%. Besides, on CYP2C8 (CYP2C8, 50 μM), the “(% Activity NADPH T0)/(% Activity NADPH T30)” value is recorded as 1.0; the activity at 30 min, 50 µM worked out at 112%; the activity at 0 min, 50 µM came out at 110%. Also, in data set [1], the clearance came to 79.9 mL/min/kg, the half-life is 72 min and the Vd came to 5.22 L/kg.
For `C[C@H]1CC[C@H](N2CC(=O)N(Cc3ccc(F)c(Cl)c3)C3(CN(C(N)=O)C3)C2=O)CC1` [Compound 7, 5-(3-chloro-4-fluorobenzyl)-8-((1r,4r)-4-methylcyclohexyl)-6,9-dioxo-2,5,8-triazaspiro[3.5]nonane-2-carboxamide], at CYP2C19 (CYP2C19, 25 μM), the “(% Activity NADPH T0)/(% Activity NADPH T30)” value worked out at 1.0; the activity at 30 min, 25 µM is 87%; the activity at 0 min, 25 µM was 87%. Moreover, on CYP2C19 (CYP2C19, 50 μM), the “(% Activity NADPH T0)/(% Activity NADPH T30)” value turned out to be 1.0; the activity at 30 min, 50 µM came to 83%; the activity at 0 min, 50 µM is 82%. In addition, at CYP1A2 (CYP1A2, 25 μM), the “(% Activity NADPH T0)/(% Activity NADPH T30)” value was 0.9; the activity at 30 min, 25 µM amounted to 95%; the activity at 0 min, 25 µM came out at 81%. Also, at CYP1A2 (CYP1A2, 50 μM), the “(% Activity NADPH T0)/(% Activity NADPH T30)” value was found to be 0.8; the activity at 30 min, 50 µM stood at 100%; the activity at 0 min, 50 µM came to 79%. On CYP2C8 (CYP2C8, 25 μM), the “(% Activity NADPH T0)/(% Activity NADPH T30)” value worked out at 1.1; the activity at 30 min, 25 µM was determined as 64%; the activity at 0 min, 25 µM amounted to 72%. Further, at CYP2C8 (CYP2C8, 50 μM), the “(% Activity NADPH T0)/(% Activity NADPH T30)” value worked out at 1.1; the activity at 30 min, 50 µM was determined as 103%; the activity at 0 min, 50 µM is 109%. In data set [1], the clearance worked out at 61.9 mL/min/kg, the half-life was 126 min and the Vd came out at 12.6 L/kg.
